Here are results for 14 compounds from US20190284192A1, “NITROGENOUS MACROCYCLIC COMPOUND, PREPARATION METHOD THEREFOR, PHARMACEUTICAL COMPOSITION AND APPLICATION THEREOF” (LUOXIN PHARMACEUTICAL (SHANGHAI) CO., LTD., priority 2016, published 2019).

One series concerns the target T1, BRD4 (BD2) (Homo sapiens, UniProt O60885).
T1 construct: Each member comprises two tandem bromodomains (BD1 and BD2) for recognizing the acetylated lysine residues
The series is described as follows: BRD4 (BD2) bromodomain binding, HTRF. The conditions noted are these: 2 h incubation at r.t. For orientation: TR-FRET usually uses a lanthanide donor and a delayed reading to cut background.

The next series has as its system MV-4-11 cells. The series is described as follows: Inhibitory effect on MV-4-11 cells (CellTiter-Glo). The series is classed as cell-based. The conditions noted are these: Homo sapiens, MV4-11; 72 hours, CellTiter-Glo; read-out: MV-4-11.
Series [1] can be described thus: Metabolic stability in mouse liver microsomes. Type of series: in vitro ADME. The conditions noted are these: mouse liver microsomes 0.5 mg/mL, NADPH, 37° C.; for CLint scaled at 1 µM: pH 7.4, read-out: MLM_CLint. As for the experimental part:
(§1) Determinations of the metabolic stability of the compound from the above embodiments, the detailed operation steps are as followed:
(§2) 1. Preparation of buffer C:
(§3) Buffer A: 1.0 L of 0.1 M potassium dihydrogen phosphate buffer (containing 1.0 mM EDTA);
(§4) Buffer B: 1.0 L of 0.1 M dipotassium hydrogen phosphate buffer (containing 1.0 mM EDTA);
(§5) Buffer C: 500 mL Buffer B was titrated with Buffer A to pH 7.4.
(§6) 2. 10 mM stock solution preparation:
(§7) 10 mM test compound: A certain amount of the test compound was weighed and dissolved in DMSO.
(§8) 10 mM control: 5.455 mg of ketanserin dissolved in 1 mL DMSO.
(§9) 3. Preparation of the drug solution:
(§10) 500 μM solution: 5 μL of 10 mM stock solution (see step 2) was added into 95 μL ACN;
(§11) 1.5 μM dosing solution (dissolved in liver microsome solution):
(§12) 18.75 μL of 20 mg/mL liver microsomes was added into 479.75 μL of Buffer C, then 1.5 μL of 500 μM solution was added and mixed gently by shaking.
(§13) 4. Preparation of 6 mM NADPH solution:
(§14) 15 mg NADPH was weighted, then added into 3 mL of buffer C to prepare a 6 mM NADPH solution.
(§15) 5. 30 µL of 1.5 μM dosing solution (see step 3) was added into the wells of the 96-well plate set at different time points (0 minutes, 5 minutes, 15 minutes, 30 minutes, 45 minutes), number of dulplicate sample is 2.
(§16) 6. Preparation of a 0 minutes sample: 135 μL ACN (with internal standard) was added to the 0 minutes well, followed by 15 µL of 6 mM NADPH solution.
(§17) 7. The 96-well plate containing 1.5 μM dosing solution and NADPH solution were preheated in a 37° C. water bath for 5 minutes.
(§18) 8. The 15 µL of 6 mM NADPH solution preheated was added into the wells set to 5 minutes, 15 minutes, 30 minutes, 45 minutes, then the reaction was initiated and started counting the time.
(§19) 10. The sample was vortexed for 10 min, and then centrifuged for 15 minutes on a centrifuge (Thermo Multifuge×3R) using 5594×g.
(§20) 11. 50 μL of the supernatant was taken from the centrifuged sample, transferred to a 96-well sample plate to which 100 μL of ultrapure water had already been added, mixed, and finally sent to LC-MS/MS for analysis.
(§21) Half time (T1/2)=0.693/K (K is the rate constant obtained by linear regression of the logarithm of the concentration as vertical coordinates and the culturing time as the abscissa)
(§22) 2. According to the equation formula bellow, Excel was used to plot the compound content versus reaction time, as well as half life calculation (min)
(§23) Y=(Y0−Plateau)×e^(−K*X)+Plateau
(§24) Y0 represents the compound content at 0 minutes; Y represents the compound content; X represents the time point; K represents degration rate constant of the compound; Plateau represents the lowest possible content of the compound (defined herein as 0).

A further series deals with T2, BRD4 (BD1) (Homo sapiens, UniProt O60885).
T2 construct: Each member comprises two tandem bromodomains (BD1 and BD2) for recognizing the acetylated lysine residues
The series is described as follows: BRD4 (BD1) bromodomain binding, HTRF. The conditions noted are these: 2 h incubation at r.t.

A short description of series [2]: Metabolic stability in human liver microsomes. The series is classed as in vitro ADME. The conditions noted are these: human liver microsomes 0.5 mg/mL, NADPH, 37° C.; for CLint scaled at 1 µM: pH 7.4, read-out: HLM_CLint. How it is done:
as §1, §2, §3, §4, §5, §6, §7, §8, §9, §10, §11, §12, §13, §14, §15, §16, §17, §18, §19, §20, §21, §22, §23, §24
(In general: Liver microsomes are a subcellular fraction often used to study metabolism.)

Turning to `CCS(=O)(=O)Cc1ccc2c(c1)-c1cn(C)c(=O)cc1CN=C2c1ccc(F)cc1F` [Compound 4012, 7-(2,4-difluorophenyl)-2-methyl-10-(ethylsulfonemethyl)-2H-benzo[c]pyrido[3,4-e]azepin-3(5H)-ketone], the IC50 at BRD4 (BD2) was 2 nM; with MV-4-11 cells, 80 nM; at BRD4 (BD1) it was 4 nM. Further, in series [1], the MLM_T1/2 worked out at 1568.22 min. The CLint scaled at 1 µM turned out to be 3.48 mL/min/kg in series [1] and 1.18 mL/min/kg in series [2]. The compound also came in with an HLM_T1/2 in series [2] of 1473.23 min.

`CCNC(=O)C[C@@H]1N=C(c2ccc(Cl)cc2)c2ccccc2-c2cn(C)c(=O)cc21` [Compound 4016, (S)-2-(7-(4-chlorophenyl)-2-methyl-3-oxo-3,5-dihydro-2H-benzo[c]pyrido[3,4-e]azepin-5-yl)-N-ethylacetamide]: the IC50 at BRD4 (BD2) was found to be 1 nM; with MV-4-11 cells, 16 nM; on BRD4 (BD1), 3 nM. This compound also returned an MLM_T1/2 in series [1] of 21.37 min. Also, the CLint scaled at 1 µM in series [1] came out at 255 mL/min/kg; in series [2], 50.8 mL/min/kg. In series [2], the HLM_T1/2 was 34.22 min.

In the case of `Cn1cc2c(cc1=O)[C@H](CC(N)=O)N=C(c1ccc(Cl)cc1)c1ccccc1-2` [Compound 4017, (S)-2-(7-(4-chlorophenyl)-2-methyl-3-oxo-3,5-dihydro-2H-benzo[c]pyrido[3,4-e]azepin-5-yl)acetamide], the IC50 at BRD4 (BD2) worked out at 2 nM; in the series on MV-4-11 cells it was 10 nM; at BRD4 (BD1), 4 nM. In series [1], this compound registered an MLM_T1/2 of 215.28 min. The CLint scaled at 1 µM in series [1] worked out at 25.4 mL/min/kg; in series [2], 2.03 mL/min/kg. This compound gave an HLM_T1/2 in series [2] of 854.27 min.

Consider `CCNC(=O)C[C@@H]1N=C(c2ccc(F)cc2)c2cc(OC)ccc2-c2cn(C)c(=O)cc21` [Compound 4023, (S)—N-ethyl-2-(7-(4-fluorophenyl)-9-methoxy-2-methyl-3-oxo-3,5-dihydro-2H-benzo[c]pyrido[3,4-e]azepin-5-yl)acetamide], for which the IC50 on BRD4 (BD2) was found to be 1 nM; in the series with MV-4-11 cells it was 9 nM; at BRD4 (BD1) it was 3 nM. For the same compound, the MLM_T1/2 in series [1] is given as 75.05 min. In addition, the CLint scaled at 1 µM came to 72.7 mL/min/kg in series [1] and 14.3 mL/min/kg in series [2]. Besides, the HLM_T1/2 in series [2] came to 121.24 min.

As for `CC[C@@H]1N=C(c2ccc(F)cc2)c2ccc(CS(=O)(=O)CC)cc2-c2cn(C)c(=O)cc21` [Compound 4038, (S)-5-ethyl-10-((ethylsulfonyl)methyl)-7-(4-flurophenyl)-2-methyl-2,5-dihydro-3H-benzo[c]pyrido[3,4-e]azepin-3-ketone], the results for the IC50 at BRD4 (BD2), with MV-4-11 cells and on BRD4 (BD1) were 1 nM, 4 nM and 2 nM, respectively. The MLM_T1/2 result in series [1] was “∞”. The HLM_T1/2 result in series [2] was “∞”.

As for `C[C@@H]1N=C(c2ccc(F)cc2)c2ccc(CS(N)(=O)=O)cc2-c2cn(C)c(=O)cc21` [Compound 4071, (S)-(7-(4-flurophenyl)-2,5-dimethyl-3-oxo-3,5-dihydro-2H-benzo[c]pyrido[3,4-e]azepin-10-yl)methane sulfamide], the IC50 on BRD4 (BD2) worked out at 1 nM; in the series on MV-4-11 cells, 10 nM; on BRD4 (BD1) it was 2 nM. In addition, the MLM_T1/2 entry in series [1] was “∞”. Also, the HLM_T1/2 entry in series [2] is listed as “∞”.

As for `CNS(=O)(=O)Cc1ccc2c(c1)-c1cn(C)c(=O)cc1[C@H](C)N=C2c1ccc(F)cc1` [Compound 4072, (S)-1-(7-(4-flurophenyl)-2,5-dimethyl-3-oxo-3,5-dihydro-2H-benzo[c]pyrido[3,4-e]azepin-10-yl)-N-methylmethane sulfamide], the IC50 at BRD4 (BD2) stood at 1 nM; in the series with MV-4-11 cells, 6 nM; on BRD4 (BD1), 1 nM. The compound also returned an MLM_T1/2 in series [1] of 372.45 min. For the same compound, in series [1], the CLint scaled at 1 µM is 14.7 mL/min/kg. In series [2], the HLM_T1/2 entry is recorded as “∞”.

Consider `C[C@@H]1N=C(c2ccc(F)cc2)c2ccc(CS(=O)(=O)N(C)C)cc2-c2cn(C)c(=O)cc21` [Compound 4073, (S)-1-(7-(4-flurophenyl)-2,5-dimethyl-3-oxo-3,5-dihydro-2H-benzo[c]pyrido[3,4-e]azepin-10-yl)-N,N-dimethylmethane sulfamide], for which the figures for the IC50 on BRD4 (BD2), in the series with MV-4-11 cells and on BRD4 (BD1) were 1 nM, 2 nM and 1 nM, respectively. This compound gave an MLM_T1/2 in series [1] of 156.12 min. Further, the figures for the CLint scaled at 1 µM in series [1] and in series [2] were 35 mL/min/kg and 12.4 mL/min/kg, respectively. In addition, the HLM_T1/2 in series [2] is given as 139.87 min.

On to `CCS(=O)(=O)Cc1ccc2c(c1)-c1cn(C)c(=O)cc1N(C)N=C2c1ccc(F)cc1` [Compound 4078, 10-((ethylsulfonyl)methyl)-7-(4-flurophenyl)-2,5-dimethyl-2,5-dihydro-3H-benzo[e]pyrido[4,3-c][1,2]diazepin-3-ketone], for which the results for the IC50 on BRD4 (BD2), in the series with MV-4-11 cells and on BRD4 (BD1) were 2 nM, 14 nM and 5 nM, respectively. In series [1], this compound displayed an MLM_T1/2 of 195.55 min. The CLint scaled at 1 µM in series [1] stood at 27.9 mL/min/kg; in series [2], 2.39 mL/min/kg. The HLM_T1/2 in series [2] stood at 727.04 min.

With `CCS(=O)(=O)Cc1ccc2c(c1)-c1nn(C)c(=O)cc1C(C)N=C2c1ccc(F)cc1` (stereo not shown) [Compound 4081, 10-((Ethylsulfonyl)methyl)-7-(4-flurophenyl)-2,5-dimethyl-2,5-dihydro-3H-benzo[c]pyridazino[3,4-e]azepin-3-ketone], the figures for the IC50 at BRD4 (BD2), in the series on MV-4-11 cells and at BRD4 (BD1) were 3 nM, 30 nM and 6 nM, respectively. The MLM_T1/2 result in series [1] is recorded as “∞”. In series [2], this compound showed an HLM_T1/2 of 2952.57 min. Besides, in series [2], the CLint scaled at 1 µM was found to be 0.59 mL/min/kg.

With `CCS(=O)(=O)Nc1cc2c(cc1F)C(c1ccc(F)cc1)=NN(C)c1cc(=O)n(C)cc1-2` [Compound 4092, N-(9-fluoro-7-(4-flurophenyl)-2,5-dimethyl-3-oxo-3,5-dihydro-2H-benzo[e]pyrido[4,3-c][1,2]diazepin-10-yl)ethylsulfonamide], the IC50 worked out at 0.6 nM on BRD4 (BD2), 3 nM in the series with MV-4-11 cells and 1 nM on BRD4 (BD1).

As for `CCS(=O)(=O)Cc1ccc2c(c1)-c1cn(C)c(=O)cc1N(C)N=C2c1ccc(F)cc1Cl` [Compound 4093, 7-(2-chloro-4-flurophenyl)-10-((ethylsulfonyl)methyl)-2,5-dimethyl-2,5-dihydro-3H-benzo[e]pyrido[4,3-c][1,2]diazepin-3-ketone], the IC50 at BRD4 (BD2) came out at 0.7 nM; with MV-4-11 cells, 17 nM; on BRD4 (BD1) it was 5 nM.

As for `CCS(=O)(=O)Cc1cc2c(cc1OC)C(c1ccc(F)cc1)=NCc1cc(=O)n(C)cc1-2` [Compound 4094, 10-((Ethylsulfonyl)methyl)-7-(4-flurophenyl)-9-methoxyl-2-methyl-2,5-dihydro-3H-benzo[c]pyrido[3,4-e]azepin-3-ketone], the values for the IC50 at BRD4 (BD2), with MV-4-11 cells and at BRD4 (BD1) were 2 nM, 49 nM and 3 nM, respectively.

In the case of `CCS(=O)(=O)Nc1cc2c(cc1F)C(c1ccc(F)cc1)=NC(C)c1cc(=O)n(C)nc1-2` (stereo not shown) [Compound 4095, N-(9-Fluoro-7-(4-flurophenyl)-2,5-dimethyl-3-oxo-3,5-dihydropyridin-2H-benzo[c]pyridazino[3,4-e]azepin-10-yl)ethylsulfonamide], the IC50 is 2 nM on BRD4 (BD2), 14 nM with MV-4-11 cells and 5 nM on BRD4 (BD1).
